# Reference: publication PMC9611726, “Synthesis, Characterization and Biological Investigation of New N-Modified Spinorphin Analogs” (Pharmaceuticals, 2022)
# Marks after values point to notes of the source that are not given here. Where a SMILES comes first, the peptide text is derived from it. [ ]: non-standard residue; d: D form. The star is where a group is joined. X1 = CCN(CC)c1ccc2c(c1)Oc1cc(N(CC)CC)ccc1C2c1ccccc1C(=O)*; Ac6c = NC1(C(=O)O)CCCCC1; Ac5c = NC1(C(=O)O)CCCC1
# Columns and labels:
# [1] = Antioxidant activity, DPPH radical scavenging; details: 77 μL sample + 3 mL DPPH, 30 min in the dark, 517 nm, standard BHT
# Description: The determination of the antioxidant activity of the new peptide derivatives was carried out by inserting 77 μL of hL extract into a test tube, then adding 3 mL of DPPH solution, homogenizing, and incubating for 30 min in a dark room. The measurement of antioxidant activity was performed by a spectrophotometer with a wavelength of 517 nm. The treatment was carried out three times. The determination of activity for the standard solution was conducted by first diluting 0.025 BHT (butylated hydroxytoluene) with 1 mL of methanol. Then 3 mL of DPPH was added to 77 μL of BHT solution in a test tube, homogenized, and incubated for 30 min in a dark room. The treatment was repeated three times. For the blank, only 77 μL of methanol plus 3 mL of DPPH were used, then homogenized and incubated for 30 min in a dark room. According to Millauskas et al. (2004), the free radical scavenging activity of the sample was calculated by the formula:(3) DPPH radical concentration (%)=Acontrol− Asample/Acontrol × 100 where Acontrol is the absorbance value of the control reaction and Asample is the absorbance value in the presence of the tested extracts sample.
# Candida albicans = assay: Antifungal activity test, paper disc diffusion; format: cell-based; details: C. albicans, Sabouraud Agar, 20 μL of 50 mg/mL, 24 h
# Description: Tests were carried out on the Candida albicans fungus. The concentration of the extract tested was 50 mg/mL. The culture of each test fungus was taken to be tilted using an asepticose needle and rejuvenated in a liquid medium. In each medium, there is a spore density of […]. The prepared medium Sabouraud Agar (SA) in a petri dish with each culture was scratched on the top, then placed on the paper disc (paper disc), and then a peptide sample of 20 μL was placed on the paper disc. It was further incubated for 24 h and the resistance zone formed measured.
# [2] = system: 6-Hz-induced psychomotor seizures; assay: Six Hz psychomotor seizure test; format: in vivo, mice; details: i.c.v.; for % Protection / No. of Animals Protected/No. of Animals Tested: 6 Hz test, male ICR mice, test 10 min after administration; for anticonvulsant effect against 6-Hz-induced psychomotor seizures (in words): highest dose of 20 μg
# Description: (§1) The screeing test for anticonvulsant activity of drugs was perfomed on male ICR mice (25–30 g), purchased by the vivarium of the Institute of Neurobiology, BAS. They were kept in standard laboratory conditions and cages in groups of 5–6 per cage with ad libitum access to commercial pellets for rodents and water. After a week of adaptation, all mice were allocated in groups of 6 according to their treatment and test procedure. Each mouse was used only for one experiment. All procedures were performed in agreement with the European Communities Council Directive 2010/63/EU. The experimental design was approved by the Bulgarian Food Safety Agency (#300/№ 5888–0183).
# (§2) […] The test for anticonvulsant activity was carried out 10 min after drug administration.
# The test for assessment drug effect against psychomotor seizures was performed via a constant current device and corneal electrodes as previously. The criterion for assessing the anticonvulsant activity was restoration of normal posture 10 s after stimulation. Controls (mice treated with vehicle) were unable to resume normal behavior and stimulation trigger different stereotypic responses and automatism such as sniffing, vibrissae, locomotion, Straub tail, or clonic seizures.
# (§3) For the 6-Hz test and MES a Fisher’s exact test (two-tailed) was applied. A one-way ANOVA of variance was used for the ivPTZ test and a Dunnet post hoc test in case of significance. Statistical significance was accepted at p ≤ 0.05 vs. control (Fisher’s exact test). The calculations were carried out with SigmaPlot program (11.0 version) and Graph Pad Prizm (Version 7.04) (GraphPad Software, San Diego, CA, USA).
# tonic seizures (MES) = assay: Maximal electroshock test (MES test); format: in vivo, mice; details: i.c.v.; for % Mortality / % Protection / No. of Animals Protected/No. of Animals Tested: male ICR mice; for No. of Animals Protected/No. of Animals Tested: test 10 min after administration
# Description: as §1, §2
# The MES test was carried out with the device used for the 6-Hz test according to the protocol reported in [38, 39]. The criterion for protection was accepted when the mouse […].
# as §3
# [3] = mice, p ≤ 0.05 compared to control
structure (smiles),measurement,setting,value
"CCN(CC)c1ccc2c(c1)Oc1cc(N(CC)CC)ccc1C2c1ccccc1C(=O)N[C@@H](CC(C)C)C(=O)N[C@H](C(=O)N[C@H](C(=O)N[C@@H](Cc1ccc(O)cc1)C(=O)NC1(C(=O)N[C@@H](Cc2c[nH]c3ccccc23)C(=O)N[C@H](C(N)=O)[C@@H](C)O)CCCC1)C(C)C)C(C)C [Rh-S5, rhodamineB-Leu-Val-Val-Tyr-Ac5c-Trp-Thr-NH2] (X1-LVVY[Ac5c]WT-NH2)",antioxidant activity compared to the positive control (in words),[1],weak
same,"antifungal activity, diameter of the inhibitory zone (in words)",Candida albicans,slightly higher than the negative control
same,% Protection,[2]; dose 5 µg/10 µL,17%
same,No. of Animals Protected/No. of Animals Tested,[2]; dose 5 µg/10 µL,1/6
same,% Protection,[2]; dose 10 µg/10 µL,33%
same,No. of Animals Protected/No. of Animals Tested,[2]; dose 10 µg/10 µL,2/6
same,% Protection,[2]; dose 20 µg/10 µL,83 * %
same,No. of Animals Protected/No. of Animals Tested,[2]; dose 20 µg/10 µL,5/6
same,anticonvulsant effect against 6-Hz-induced psychomotor seizures (in words),[2]; [3],significant anticonvulsant effect
same,% Mortality,"tonic seizures (MES); MES test, dose 5 µg/10 µL",17%
same,% Protection,"tonic seizures (MES); MES test, dose 5 µg/10 µL",41%
same,% Mortality,"tonic seizures (MES); MES test, dose 10 µg/10 µL",17%
same,% Protection,"tonic seizures (MES); MES test, dose 10 µg/10 µL",42%
same,No. of Animals Protected/No. of Animals Tested,"tonic seizures (MES); MES test, dose 10 µg/10 µL",5/12
same,% Mortality,"tonic seizures (MES); MES test, dose 20 µg/10 µL",17%
same,% Protection,"tonic seizures (MES); MES test, dose 20 µg/10 µL",67 * %
same,No. of Animals Protected/No. of Animals Tested,"tonic seizures (MES); MES test, dose 20 µg/10 µL",4/6
same,protective potency against tonic seizures (in words),"tonic seizures (MES); MES test, mice, dose of 20 µg, p ≤ 0.05 compared to control",stronger protective potency compared to the heptapeptide Rh-S
"CCN(CC)c1ccc2c(c1)Oc1cc(N(CC)CC)ccc1C2c1ccccc1C(=O)N[C@@H](CC(C)C)C(=O)N[C@H](C(=O)N[C@H](C(=O)N[C@@H](Cc1ccc(O)cc1)C(=O)NC1(C(=O)N[C@@H](Cc2c[nH]c3ccccc23)C(=O)N[C@H](C(N)=O)[C@@H](C)O)CCCCC1)C(C)C)C(C)C [Rh-S6, rhodamineB-Leu-Val-Val-Tyr-Ac6c-Trp-Thr-NH2] (X1-LVVY[Ac6c]WT-NH2)",antioxidant activity compared to the positive control (in words),[1],similar
same,"antifungal activity, diameter of the inhibitory zone (in words)",Candida albicans,slightly higher than the negative control
same,% Protection,[2]; dose 5 µg/10 µL,33%
same,No. of Animals Protected/No. of Animals Tested,[2]; dose 5 µg/10 µL,2/6
same,% Protection,[2]; dose 10 µg/10 µL,50%
same,No. of Animals Protected/No. of Animals Tested,[2]; dose 10 µg/10 µL,3/6
same,% Protection,[2]; dose 20 µg/10 µL,67 * %
same,No. of Animals Protected/No. of Animals Tested,[2]; dose 20 µg/10 µL,4/6
same,anticonvulsant effect against 6-Hz-induced psychomotor seizures (in words),[2]; [3],significant anticonvulsant effect
same,% Mortality,"tonic seizures (MES); MES test, dose 5 µg/10 µL",0%
same,% Protection,"tonic seizures (MES); MES test, dose 5 µg/10 µL",100 * %
same,No. of Animals Protected/No. of Animals Tested,"tonic seizures (MES); MES test, dose 5 µg/10 µL",6/6
same,% Mortality,"tonic seizures (MES); MES test, dose 10 µg/10 µL",0%
same,% Protection,"tonic seizures (MES); MES test, dose 10 µg/10 µL",100 * %
same,No. of Animals Protected/No. of Animals Tested,"tonic seizures (MES); MES test, dose 10 µg/10 µL",6/6
same,% Mortality,"tonic seizures (MES); MES test, dose 20 µg/10 µL",0%
same,% Protection,"tonic seizures (MES); MES test, dose 20 µg/10 µL",100 * %
same,No. of Animals Protected/No. of Animals Tested,"tonic seizures (MES); MES test, dose 20 µg/10 µL",6/6
same,mortality in the MES test (in words),"tonic seizures (MES); mice, at the three doses studied (5, 10 and 20 μg)",no mortality
same,protection in the MES test,"tonic seizures (MES); mice, at the three doses studied (5, 10 and 20 μg), p ≤ 0.05 compared to control",100%
"CCN(CC)c1ccc2c(c1)Oc1cc(N(CC)CC)ccc1C2c1ccccc1C(=O)N[C@@H](CC(C)C)C(=O)N[C@H](C(=O)N[C@H](C(=O)N[C@@H](Cc1ccc(O)cc1)C(=O)N1CCC[C@H]1C(=O)N[C@@H](Cc1c[nH]c2ccccc12)C(=O)N[C@H](C(N)=O)[C@@H](C)O)C(C)C)C(C)C [Rh-S, rhodamineB-Leu-Val-Val-Tyr-Pro-Trp-Thr-NH2] (X1-LVVYPWT-NH2)",antioxidant activity compared to the positive control (in words),[1],similar
same,"antifungal activity, diameter of the inhibitory zone (in words)",Candida albicans,slightly higher than the negative control
same,% Protection,[2]; dose 5 µg/10 µL,67 * %
same,No. of Animals Protected/No. of Animals Tested,[2]; dose 5 µg/10 µL,4/6
same,% Protection,[2]; dose 10 µg/10 µL,100 * %
same,No. of Animals Protected/No. of Animals Tested,[2]; dose 10 µg/10 µL,6/6
same,% Protection,[2]; dose 20 µg/10 µL,67 * %
same,No. of Animals Protected/No. of Animals Tested,[2]; dose 20 µg/10 µL,4/6
same,protection against 6-Hz-induced psychomotor seizures (in words),"[2]; mice, at the three doses used (5, 10, and 20 μg), p ≤ 0.05 compared to control",significant protection
same,% Mortality,"tonic seizures (MES); MES test, dose 5 µg/10 µL",50%
same,% Protection,"tonic seizures (MES); MES test, dose 5 µg/10 µL",50%
same,No. of Animals Protected/No. of Animals Tested,"tonic seizures (MES); MES test, dose 5 µg/10 µL",3/6
same,% Mortality,"tonic seizures (MES); MES test, dose 10 µg/10 µL",0%
same,% Protection,"tonic seizures (MES); MES test, dose 10 µg/10 µL",50%
same,No. of Animals Protected/No. of Animals Tested,"tonic seizures (MES); MES test, dose 10 µg/10 µL",3/6
same,% Mortality,"tonic seizures (MES); MES test, dose 20 µg/10 µL",33%
same,% Protection,"tonic seizures (MES); MES test, dose 20 µg/10 µL",67 * %
same,No. of Animals Protected/No. of Animals Tested,"tonic seizures (MES); MES test, dose 20 µg/10 µL",4/6
